A word on the EC50: it is the midpoint of the concentration-response curve. A higher EC50 goes with a need for much substance.

The assay addresses human KOR receptor (Homo sapiens, UniProt P41145). Put plainly: IP-One HTRF assay, potency of KOR agonists, dose-response in transiently transfected COS-7 cells. The format is cell-based.

Chain of human KOR receptor (P41145 whole entry): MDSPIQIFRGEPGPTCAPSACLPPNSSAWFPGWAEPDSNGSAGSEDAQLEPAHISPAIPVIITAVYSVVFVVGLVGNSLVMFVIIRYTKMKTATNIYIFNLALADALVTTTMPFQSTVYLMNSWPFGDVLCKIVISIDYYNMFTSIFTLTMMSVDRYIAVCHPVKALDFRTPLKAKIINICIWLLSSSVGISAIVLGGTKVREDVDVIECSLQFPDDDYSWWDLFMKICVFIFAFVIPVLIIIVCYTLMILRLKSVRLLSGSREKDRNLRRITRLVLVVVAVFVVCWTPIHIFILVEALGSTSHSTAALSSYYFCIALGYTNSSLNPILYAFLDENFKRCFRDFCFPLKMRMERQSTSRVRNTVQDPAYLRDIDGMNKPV

Consider `CN(C(=O)Cc1ccc2c(c1)CS(=O)(=O)N2)[C@H](CN1CC[C@H](O)C1)c1ccccc1` [Example 10, 5-(2-(((S)-2-((S)-3-hydroxypyrrolidin-1-yl)-1-phenylethyl)(methyl)amino)-2-oxoethyl)-1,3-dihydrobenzo[c]isothiazol-1-ium 2,2-dioxide 2,2,2-trifluoroacetate], for which the concentration giving a half-maximal response (EC50) fell in the range of 101 to 1000 nM.

`CN(C(=O)Cc1ccc2c(c1)NC(=O)CS2(=O)=O)[C@H](CN1CC[C@H](O)C1)c1cccc(OC(F)F)c1` [Example 11, N-((S)-1-(3-(difluoromethoxy)phenyl)-2-((S)-3-hydroxypyrrolidin-1-yl)ethyl)-2-(1,1-dioxido-3-oxo-3,4-dihydro-2H-benzo[b][1,4]thiazin-6-yl)-N-methylacetamide]: the EC50 is at least 1000 nM.

With `CN(C(=O)Cc1ccc2c(c1)NC(=O)C2(F)F)[C@H](CN1CC[C@H](O)C1)c1ccccc1` [Example 12, 2-(3,3-difluoro-2-oxoindolin-6-yl)-N-((S)-2-((S)-3-hydroxypyrrolidin-1-yl)-1-phenylethyl)-N-methylacetamide], the EC50 is at most 50 nM.

As for `O=C(Cc1ccc2c(c1)NC(=O)C2(F)F)N[C@H](CN1CC[C@H](O)C1)c1ccccc1` [Example 13, 2-(3,3-difluoro-2-oxoindolin-6-yl)-N-((S)-2-((S)-3-hydroxypyrrolidin-1-yl)-1-phenylethyl)acetamide], the concentration giving a half-maximal response (EC50) is at least 1000 nM.

The compound `CCN(C(=O)Cc1ccc2c(c1)NC(=O)CS2(=O)=O)[C@H](CN1CC[C@H](O)C1)c1cccc(OC(F)(F)F)c1` [Example 14, 2-(1,1-dioxido-3-oxo-3,4-dihydro-2H-benzo[b][1,4]thiazin-6-yl)-N-ethyl-N-((S)-2-((S)-3-hydroxypyrrolidin-1-yl)-1-(3-(trifluoromethoxy)phenyl)ethyl)acetamide] returned a concentration for a half-maximal effect (EC50) of at least 1000 nM.

`CO[C@H]1CCN(C[C@H](c2cccc(OC(F)(F)F)c2)N(C)C(=O)Cc2ccc3c(c2)NC(=O)CS3(=O)=O)C1` [Example 15, 2-(1,1-dioxido-3-oxo-3,4-dihydro-2H-benzo[b][1,4]thiazin-6-yl)-N-((S)-2-((S)-3-methoxypyrrolidin-1-yl)-1-(3-(trifluoromethoxy)phenyl)ethyl)-N-methylacetamide]: the EC50 is at most 50 nM.

The compound `O=C1CS(=O)(=O)c2ccc(CC(=O)N(CC(F)(F)F)[C@H](CN3CC[C@H](O)C3)c3cccc(OC(F)(F)F)c3)cc2N1` [Example 16, 2-(1,1-dioxido-3-oxo-3,4-dihydro-2H-benzo[b][1,4]thiazin-6-yl)-N-((S)-2-((S)-3-hydroxypyrrolidin-1-yl)-1-(3-(trifluoromethoxy)phenyl)ethyl)-N-(2,2,2-trifluoroethyl)acetamide 2,2,2-trifluoroacetate] displayed a 50% effective concentration (EC50) of at most 50 nM.

Consider `CN(C(=O)Cc1ccc2c(c1)NC(=O)CS2(=O)=O)C(CN1CC[C@H](O)C1)C1CCOCC1` (stereo partly drawn) [Example 17, 2-(1,1-dioxido-3-oxo-3,4-dihydro-2H-benzo[b][1,4]thiazin-6-yl)-N-(2-((S)-3-hydroxypyrrolidin-1-yl)-1-(tetrahydro-2H-pyran-4-yl)ethyl)-N-methylacetamide-2,2,2-trifluoroacetate], for which the EC50 was 101 to 1000 nM.

Consider `CN(C(=O)Cc1ccc2sc(=O)[nH]c2c1)[C@H](CN1CC[C@H](O)C1)c1cccc(C(=O)O)c1` [Example 18, 3-((S)-2-((S)-3-hydroxypyrrolidin-1-yl)-1-(N-methyl-2-(2-oxo-2,3-dihydrobenzo[d]thiazol-5-yl)acetamido)ethyl)benzoic acid], for which the EC50 was at most 50 nM.

`CN(C(=O)Cc1ccc2sc(=O)[nH]c2c1)[C@H](CN1CC[C@H](O)C1)c1cccc(C(N)=O)c1` [Example 19, 3-((S)-2-((S)-3-hydroxypyrrolidin-1-yl)-1-(N-methyl-2-(2-oxo-2,3-dihydrobenzo [d]thiazol-5-yl)acetamido)ethyl)benzamide] yielded an EC50 of at most 50 nM.

On to `CN(C(=O)Cc1ccc2c(c1)N(C)S(=O)(=O)C2)[C@H](CN1CC[C@H](O)C1)c1cccc(-c2nn[nH]n2)c1` [Example 21, N-((S)-1-(3-(1H-tetrazol-5-yl)phenyl)-2-((S)-3-hydroxypyrrolidin-1-yl)ethyl)-N-methyl-2-(1-methyl-2,2-dioxido-1,3-dihydrobenzo[c]isothiazol-6-yl)acetamide], for which the concentration for a half-maximal effect (EC50) lay within 51 to 100 nM.

As for `CN(C(=O)Cc1ccc2c(c1)NC(=O)CS2(=O)=O)[C@H](CN1CC[C@H](O)C1)c1cccc(OCC(=O)O)c1` [Example 22, 2-(3-((S)-1-(2-(1,1-dioxido-3-oxo-3,4-dihydro-2H-benzo[b][1,4]thiazin-6-yl)-N-methylacetamido)-2-((S)-3-hydroxypyrrolidin-1-yl)ethyl)phenoxy)acetic acid], the EC50 was at most 50 nM.

`CN(C(=O)Cc1ccc2c(c1)NC(=O)C2)[C@H](CN1CC[C@H](O)C1)c1cccc(C(=O)O)c1` [Example 23, 3-((S)-2-((S)-3-hydroxypyrrolidin-1-yl)-1-(N-methyl-2-(2-oxoindolin-6-yl)acetamido)ethyl) benzoic acid] came in with a concentration giving a half-maximal response (EC50) of at most 50 nM.

As to `CN(C(=O)Cc1ccc2c(c1)NC(=O)C2)[C@H](CN1CC[C@H](O)C1)c1cccc(C(N)=O)c1` [Example 24, 3-((S)-2-((S)-3-hydroxypyrrolidin-1-yl)-1-(N-methyl-2-(2-oxoindolin-6-yl)acetamido)ethyl) benzamide], the 50% effective concentration (EC50) is at most 50 nM.

The compound `CN(C(=O)Cc1ccc2c(c1)NC(=O)C2)[C@H](CN1CC[C@H](F)C1)c1cccc(C#N)c1` [Example 25, N-((S)-1-(3-cyanophenyl)-2-((S)-3-fluoropyrrolidin-1-yl)ethyl)-N-methyl-2-(2-oxoindolin-6-yl)acetamide] came in with a concentration giving a half-maximal response (EC50) of at most 50 nM.

`CN(C(=O)Cc1ccc2c(c1)NC(=O)C2)[C@H](CN1CC[C@H](O)C1)c1cccc(OCC(N)=O)c1` [Example 26, N-((S)-1-(3-(2-amino-2-oxoethoxy)phenyl)-2-((S)-3-hydroxypyrrolidin-1-yl)ethyl)-N-methyl-2-(2-oxoindolin-6-yl)acetamide] showed an EC50 of at most 50 nM.

In turn, `CN(C(=O)Cc1ccc2c(c1)NC(=O)C2)[C@H](CN1CC[C@H](O)C1)c1cccc(OCC(=O)NS(C)(=O)=O)c1` [Example 27, N-((S)-2-((S)-3-hydroxypyrrolidin-1-yl)-1-(3-(2-(methylsulfonamido)-2-oxoethoxy)phenyl)ethyl)-N-methyl-2-(2-oxoindolin-6-yl)acetamide] displayed a half-maximal effective concentration (EC50) of 51 to 100 nM.

`CN(C(=O)Cc1ccc2c(c1)NC(=O)C2)[C@H](CN1CC[C@H](F)C1)c1cccc(C(=O)O)c1` [Example 28, 3-((S)-2-((S)-3-fluoropyrrolidin-1-yl)-1-(N-methyl-2-(2-oxoindolin-6-yl)acetamido)ethyl) benzoic acid] returned an EC50 of 101 to 1000 nM.

`CN(C(=O)Cc1ccc2c(c1)NC(=O)C2)[C@H](CN1CC[C@H](F)C1)c1cccc(OCC(=O)O)c1` [Example 29, 2-(3-((S)-2-((S)-3-fluoropyrrolidin-1-yl)-1-(N-methyl-2-(2-oxoindolin-6-yl)acetamido)ethyl)phenoxy)acetic acid] had an EC50 of at most 50 nM.

Compound `CN(C(=O)Cc1ccc2c(c1)NC(=O)C2)[C@H](CN1CC[C@H](F)C1)c1cccc(OCC(N)=O)c1` [Example 30, N-((S)-1-(3-(2-amino-2-oxoethoxy)phenyl)-2-((S)-3-fluoropyrrolidin-1-yl)ethyl)-N-methyl-2-(2-oxoindolin-6-yl)acetamide] registered an EC50 of at least 1000 nM.

Take `CN(C(=O)Cc1ccc2ncc(=O)[nH]c2c1)[C@H](CN1CC[C@H](O)C1)c1cccc(C(=O)O)c1` [Example 31, 3-((S)-2-((S)-3-hydroxypyrrolidin-1-yl)-1-(N-methyl-2-(3-oxo-3,4-dihydroquinoxalin-6-yl)acetamido)ethyl)benzoic acid]: the EC50 was at most 50 nM.

In the case of `CN(C(=O)Cc1ccc2c(c1)NC(=O)CS2)[C@H](CN1CC[C@H](O)C1)c1cccc(C(N)=O)c1` [Example 32, 3-((S)-2-((S)-3-hydroxypyrrolidin-1-yl)-1-(N-methyl-2-(3-oxo-3,4-dihydro-2H-benzo[b][1,4]thiazin-6-yl)acetamido)ethyl)benzamide], the EC50 is at most 50 nM.

Compound `CN(C(=O)Cc1ccc2ncc(=O)[nH]c2c1)[C@H](CN1CC[C@H](O)C1)c1cccc(-c2noc(C(F)(F)F)n2)c1` [Example 34, N-((S)-2-((S)-3-hydroxypyrrolidin-1-yl)-1-(3-(5-(trifluoromethyl)-1,2,4-oxadiazol-3-yl)phenyl)ethyl)-N-methyl-2-(3-oxo-3,4-dihydroquinoxalin-6-yl)acetamide] had an EC50 of at most 50 nM.

As for `Cc1nc(-c2cccc([C@@H](CN3CC[C@H](O)C3)N(C)C(=O)Cc3ccc4c(c3)NC(=O)C4)c2)no1` [Example 35, N-((S)-2-((S)-3-hydroxypyrrolidin-1-yl)-1-(3-(5-methyl-1,2,4-oxadiazol-3-yl)phenyl)ethyl)-N-methyl-2-(2-oxoindolin-6-yl)acetamide], the EC50 is at most 50 nM.

As to `CN(C(=O)Cc1ccc2c(c1)NC(=O)C2)[C@H](CN1CC[C@H](O)C1)c1cccc(-c2nccs2)c1` [Example 36, N-((S)-2-((S)-3-hydroxypyrrolidin-1-yl)-1-(3-(thiazol-2-yl)phenyl)ethyl)-N-methyl-2-(2-oxoindolin-6-yl)acetamide], the EC50 was in the range of 51 to 100 nM.

For the compound `CCC#Cc1cccc([C@@H](CN2CC[C@H](O)C2)N(C)C(=O)Cc2ccc3c(c2)NS(=O)(=O)C3)c1` [Example 37, N-((S)-1-(3-(but-1-yn-1-yl)phenyl)-2-((S)-3-hydroxypyrrolidin-1-yl)ethyl)-2-(2,2-dioxido-1,3-dihydrobenzo[c]isothiazol-6-yl)-N-methylacetamide], the EC50 was at most 50 nM.

`CN(C(=O)Cc1ccc2c(c1)NC(=O)C2)[C@H](CN1CC[C@H](O)C1)c1cccc(C(=O)NCC(F)(F)F)c1` [Example 38, 3-((S)-2-((S)-3-hydroxypyrrolidin-1-yl)-1-(N-methyl-2-(2-oxoindolin-6-yl)acetamido)ethyl)-N-(2,2,2-trifluoroethyl)benzamide]: the concentration for a half-maximal effect (EC50) was at most 50 nM.

For the compound `CCN(CC)C(=O)c1cccc([C@@H](CN2CC[C@H](O)C2)N(C)C(=O)Cc2ccc3c(c2)NC(=O)C3)c1` [Example 39, N,N-diethyl-3-((S)-2-((S)-3-hydroxypyrrolidin-1-yl)-1-(N-methyl-2-(2-oxoindolin-6-yl)acetamido)ethyl)benzamide], the half-maximal effective concentration (EC50) is at most 50 nM.
